Usually IC50 stands for the concentration at which inhibition is half-maximal.

In one experiment the target is T1, AhR (Homo sapiens, UniProt P35869).
T1 construct: endogenous in cells; host or cells: U937 cells
T1 sequence (P35869 11-848): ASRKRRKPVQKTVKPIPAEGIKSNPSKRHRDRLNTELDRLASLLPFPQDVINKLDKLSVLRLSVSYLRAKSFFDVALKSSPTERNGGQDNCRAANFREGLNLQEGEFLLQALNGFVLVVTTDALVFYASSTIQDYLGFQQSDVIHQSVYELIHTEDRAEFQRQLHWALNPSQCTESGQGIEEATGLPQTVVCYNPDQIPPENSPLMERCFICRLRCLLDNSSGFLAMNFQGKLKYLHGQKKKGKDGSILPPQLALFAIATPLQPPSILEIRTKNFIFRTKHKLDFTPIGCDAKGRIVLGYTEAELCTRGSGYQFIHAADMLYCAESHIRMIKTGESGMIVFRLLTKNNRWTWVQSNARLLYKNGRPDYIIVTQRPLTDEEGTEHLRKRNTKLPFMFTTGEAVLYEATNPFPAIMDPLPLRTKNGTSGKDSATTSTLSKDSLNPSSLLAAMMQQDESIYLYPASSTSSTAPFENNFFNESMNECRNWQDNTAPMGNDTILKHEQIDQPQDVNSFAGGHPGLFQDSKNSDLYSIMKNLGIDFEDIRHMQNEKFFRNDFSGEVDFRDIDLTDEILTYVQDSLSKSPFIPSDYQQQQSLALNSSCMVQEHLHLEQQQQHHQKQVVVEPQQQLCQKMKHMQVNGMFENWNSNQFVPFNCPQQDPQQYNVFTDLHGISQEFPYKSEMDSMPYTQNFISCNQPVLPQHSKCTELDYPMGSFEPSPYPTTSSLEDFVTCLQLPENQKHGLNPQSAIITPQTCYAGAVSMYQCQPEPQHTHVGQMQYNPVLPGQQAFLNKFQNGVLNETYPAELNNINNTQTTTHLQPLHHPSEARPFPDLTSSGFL
In words: AhR antagonism in U937 cells (Promega P450-Glo assay). It counts as cell-based. The conditions noted are these: inhibition of 300 μM KYNA response, 24 hrs, CYP1A1 activity readout (Luciferin-CEE), arithmetic mean of pIC50. Here is the method: (§1) The compounds of the examples were tested in selected biological assays two or more times. Data are reported as the arithmetic mean of the pIC50 (−log10IC50) values, where IC50 is defined as the concentration of compound producing a 50% inhibition of the agonist (KYNA) response.
In Vitro Assay 1: AhR Antagonism in U937 Cells (Promega P450-Glo™ Assay)
AhR antagonism was assessed in U937 cells (myeloid lineage cell line derived from a human histiocytic lymphoma). Ligand binds the AhR in the cytoplasm, and the AhR-ligand complex translocates to the nucleus and forms a heterodimer with AhR nuclear translocator (Arnt). This complex binds the xenobiotic response element (XRE) in the 5′ upstream region of the CYP1A1 promoter, enhancing CYP1A1 expression. CYP1A1 activity is subsequently determined by assessing the conversion of Luciferin-CEE to luciferin, which in turn reacts with luciferase to produce light. The amount of light produced is directly proportional to cytochrome P450 activity. U937 cells in Ultraculture serum free media (Lonza) were plated at 100,000 cells per well in a round bottom 96 well tissue culture plate. Seven concentrations of test compound (final [DMSO]1%) were added and incubated for 10 minutes before the addition of 300 μM KYNA. The plates were then placed in an incubator at 37° C., >85% humidity, 5% CO2 for 24 hrs. After aspiration of the supernatant the CYP1A1 substrate Luciferin-CEE ([Final] 83 μM) was added and incubated for 3 hrs before the reaction was stopped by adding luciferin detection reagent and luminescence was read after 20 minutes.

The next experiment addresses T2, CYP1A1 (Homo sapiens, UniProt P04798).
T2 construct: purchased Cypex
T2 sequence (P04798 1-512): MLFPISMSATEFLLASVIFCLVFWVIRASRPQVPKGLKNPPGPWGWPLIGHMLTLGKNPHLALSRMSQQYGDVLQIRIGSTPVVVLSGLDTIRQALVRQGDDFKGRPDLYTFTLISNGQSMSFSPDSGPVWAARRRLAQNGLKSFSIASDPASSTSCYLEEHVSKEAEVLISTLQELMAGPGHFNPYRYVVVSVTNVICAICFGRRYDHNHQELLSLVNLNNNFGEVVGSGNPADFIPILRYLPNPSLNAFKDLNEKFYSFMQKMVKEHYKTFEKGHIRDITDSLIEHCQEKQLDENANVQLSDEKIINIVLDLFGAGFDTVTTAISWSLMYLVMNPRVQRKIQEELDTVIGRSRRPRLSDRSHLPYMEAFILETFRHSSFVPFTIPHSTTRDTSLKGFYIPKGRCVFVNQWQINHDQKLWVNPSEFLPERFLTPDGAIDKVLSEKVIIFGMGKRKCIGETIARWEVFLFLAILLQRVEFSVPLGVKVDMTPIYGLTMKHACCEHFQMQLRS
The experiment can be described thus: CYP1A1 inhibition assay (Promega P450-Glo, Cypex CYP1A1 bactosomes). It counts as biochemical. Conditions: Luciferin-CEE 30 μM, 0.2 mM NADPH, 37° C. 10 minutes, arithmetic mean of pIC50. On the procedure:
as §1
In vitro assay 2: CYP1A1 inhibition assay The direct CYP1A1 inhibitory activity of test compounds was also assessed using the Promega P450-Glo™ assay system. Seven concentrations of test compound were added to a ½ area white 96 well plate. Cypex CYP1A1 bactosomes ([final] 0.5 pmol) and CYP1A1 substrate Luciferin-CEE ([final] 30 μM) were prepared in 0.1M potassium phosphate buffer and incubated with test compounds at 37° C. for 5 minutes. 0.2 mM NADPH was then added to the plates and incubated at 37° C., for 10 minutes. The reaction was stopped by adding luciferin detection reagent and luminescence was read after 20 minutes.

Turning to `COCCn1nccc1C(=O)Nc1ccc(-c2nc3cccc(C)c3o2)cc1` [Example 24, 1-(2-methoxyethyl)-N-(4-(7-methylbenzo[d]oxazol-2-yl)phenyl)-1H-pyrazole-5-carboxamide], the IC50 was 63.1 nM at AhR and 631 nM against CYP1A1.

(Values after US20210395242A1, “HETEROCYCLIC COMPOUNDS AS AHR MODULATORS” (JAGUAHR THERAPEUTICS PTE LTD, priority 2018, published 2021).)
